Data from patent publication EP0210342A2, “Medicament containing pyridinones having an antithrombotic activity” (Dr. Karl Thomae GmbH, priority 1985, dated 1987).

Key:
[1] = system: Thrombusbildung; experiment: Stenosis-induced spontaneous coronary thrombus formation in anaesthetised dogs (shake loose, Folts); assay type: in vivo, Hunde; settings: for Verminderung der Häufigkeit der Spontanverschlüsse: 1 mg/kg i.v.; for antithrombotische Wirkung: 1 mg/kg
[2] = Acute toxicity in mice (LD50, 14 days observation); parameters: species or system Mäusen; settings: mouse, in vivo, observation 14 days
Source text: Die akute Toxizität der zu untersuchenden Substanzen wurde an Mäusen (Beobachtungszeit: 14 Tage) nach oraler bzw. intravenöser Gabe bestimmt. Es wurde die LD₅₀ aus dem Prozentsatz der Tiere berechnet, die nach verschiedenen Dosen innerhalb der Beobachtungszeit verstarben: […]

In the case of `COc1ccc2nc(-c3ccc(OCC(O)CNC(C)(C)C)cc3)n(C)c(=O)c2c1` (single isomer, unassigned; (-)) [Verbindung C, (-)-2-2[4-(2-Hydroxy-3-tert.butylamino-propoxy)-phenyl]-3-methyl-6-methoxy-3,4-dihydro-chinazolin-4-on], the “Verminderung der Häufigkeit der Spontanverschlüsse” value ([1]; 30th to 60th minute after substance) is reported as 73% and the “Verminderung der Häufigkeit der Spontanverschlüsse” value ([1]; first 30 min after substance) is reported as 55%.
With `CC(C)NCC(O)COc1ccc(CC(N)=O)cc1` (stereo not drawn) [Atenolol, reference compound] the “antithrombotische Wirkung” value [1] was “nicht antithrombotisch”.
For `CC(C)NCC(O)COc1cccc2ccccc12` (stereo not drawn) [Propranolol, reference compound], the “antithrombotische Wirkung” value [1] was “nicht antithrombotisch”.
Work on `COc1ccc2nc(-c3ccc(OCC(O)CNC(C)(C)C)cc3)n(C)c(=O)c2c1` (stereo not drawn) [Verbindung B, 2-[4-(2-Hydroxy-3-tert.butylamino-propoxy)-phenyl]-3-methyl-6-methoxy-3,4-dihydro-chinazolin-4-on] yielded an LD50 at 336 h ([2]; iv) of 75 mg/kg and an LD50 at 336 h ([2]; po) of 750 mg/kg.
